What was measured:
Assay in all cases: relative viability (nuclei count vs DMSO), 5 days (fraction); higher = more cells survive
PAC-1 + OSI-027 = compound: C=CCc1cccc(/C=N/NC(=O)CN2CCN(Cc3ccccc3)CC2)c1O [PAC-1] + COc1cccc2cc(-c3nc([C@H]4CC[C@H](C(=O)O)CC4)n4ncnc(N)c34)[nH]c12 [OSI-027] (partner 0.5 µM)
Procedure, shortened: (§1)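 Cells from lung cancer lines were seeded into 1536-well plates and, one day later, dosed by pin tool. Treatments were either a single drug or a fixed dose of an anchor drug with five library-drug doses (not always all listed) in √10 steps. After 5 days, nuclei were stained in a one-step fixation (final 0.05% Triton X-100, 1% formaldehyde, 1 ug/ml Hoechst) and counted on 4× images, and relative viability is the treated-to-vehicle nuclei ratio, as the median of duplicate plates.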

Ibrutinib + Bortezomib = compound: C=CC(=O)N1CCC[C@@H](n2nc(-c3ccc(Oc4ccccc4)cc3)c3c(N)ncnc32)C1 [Ibrutinib] + CC(C)C[C@H](NC(=O)[C@H](Cc1ccccc1)NC(=O)c1cnccn1)B(O)O [Bortezomib] (partner 0.002 µM)
Procedure, shortened: as §1

Ibrutinib + Palbociclib = compound: C=CC(=O)N1CCC[C@@H](n2nc(-c3ccc(Oc4ccccc4)cc3)c3c(N)ncnc32)C1 [Ibrutinib] + CC(=O)c1c(C)c2cnc(Nc3ccc(N4CCNCC4)cn3)nc2n(C2CCCC2)c1=O [Palbociclib] (partner 0.5 µM)
Procedure, shortened: as §1

BMX-IN-1 + Linsitinib = compound: C=CC(=O)Nc1cc(-n2c(=O)ccc3cnc4ccc(-c5ccc(NS(C)(=O)=O)cc5)cc4c32)ccc1C [BMX-IN-1] + C[C@]1(O)C[C@@H](c2nc(-c3ccc4ccc(-c5ccccc5)nc4c3)c3c(N)nccn32)C1 [Linsitinib] (partner 1 µM)
Procedure, shortened: as §1

Cell Line | relative viability (PAC-1 + OSI-027; first compound 0.02 µM) | relative viability (PAC-1 + OSI-027; first compound 0.06325 µM) | relative viability (PAC-1 + OSI-027; first compound 0.2 µM) | relative viability (PAC-1 + OSI-027; first compound 2 µM) | relative viability (Ibrutinib + Bortezomib; first compound 0.005 µM) | relative viability (Ibrutinib + Bortezomib; first compound 0.01581 µM) | relative viability (Ibrutinib + Bortezomib; first compound 0.05 µM) | relative viability (Ibrutinib + Bortezomib; first compound 0.1581 µM) | relative viability (Ibrutinib + Bortezomib; first compound 0.5 µM) | relative viability (Ibrutinib + Palbociclib; first compound 0.005 µM) | relative viability (Ibrutinib + Palbociclib; first compound 0.01581 µM) | relative viability (Ibrutinib + Palbociclib; first compound 0.05 µM) | relative viability (Ibrutinib + Palbociclib; first compound 0.1581 µM) | relative viability (Ibrutinib + Palbociclib; first compound 0.5 µM) | relative viability (BMX-IN-1 + Linsitinib; first compound 0.02 µM) | relative viability (BMX-IN-1 + Linsitinib; first compound 0.2 µM) | relative viability (BMX-IN-1 + Linsitinib; first compound 0.6325 µM) | relative viability (BMX-IN-1 + Linsitinib; first compound 2 µM)
NCI-H1666 | 0.848 | 0.866 | 0.777 | 0.849 | 0.768 | 0.79 | 0.802 | 0.695 | 0.977 | 0.647 | 0.692 | 0.639 | 0.631 | 0.659 | 0.872 | 0.891 | 0.797 | 0.595
NCI-H650 | 0.47 | 0.515 | 0.468 | 0.535 | – | 0.706 | – | 1.12 | 0.932 | 0.399 | 0.303 | 0.415 | 0.414 | 0.358 | 0.839 | 1.09 | 1.02 | 0.858
EPLC-272H | 0.312 | 0.27 | 0.22 | 0.262 | – | 0.881 | 0.924 | 0.839 | 0.753 | – | 0.282 | 0.312 | 0.316 | 0.272 | 1.19 | 1.35 | 1.42 | 1.01
LXF-289 | 0.764 | 0.835 | 0.739 | 0.789 | 1.09 | 0.985 | 0.966 | 0.959 | 0.914 | 0.607 | 0.598 | 0.582 | 0.556 | 0.606 | 0.982 | 1.05 | 1.07 | 1.04
LOU-NH91 | 0.643 | 0.68 | 0.727 | 0.715 | 0.509 | 0.553 | 0.513 | 0.476 | 0.478 | 0.563 | 0.499 | 0.567 | 0.56 | 0.513 | – | 0.976 | 0.993 | 0.919
LCLC-103H | 0.45 | 0.467 | 0.436 | 0.559 | 0.999 | 1.01 | 1.07 | 0.986 | 1.05 | 0.498 | 0.506 | 0.528 | 0.481 | 0.469 | 1.12 | 1.06 | 1.09 | 1.14
NCI-H460 | 0.582 | 0.727 | 0.626 | 0.637 | 1.27 | 1.02 | 1.19 | 1.19 | 1.27 | 0.167 | 0.19 | 0.197 | 0.149 | 0.202 | 1.04 | 1.07 | 1.45 | 0.777
NCI-H322M | 0.547 | 0.586 | 0.543 | 0.505 | 1.09 | 1.22 | 1.25 | 1.24 | 1.07 | 0.472 | 0.463 | 0.479 | 0.469 | 0.399 | 0.911 | 0.971 | 0.891 | 0.975
H3255 | 0.604 | 0.487 | 0.558 | 0.611 | 0.583 | 0.889 | 0.51 | 0.617 | 0.313 | 0.312 | 0.328 | 0.293 | 0.324 | 0.26 | 1.07 | 1.01 | 0.965 | 0.912
COR-L23 | 0.885 | 0.771 | 0.724 | 0.698 | 1.13 | 0.992 | 0.983 | 0.917 | 1.1 | 0.285 | 0.304 | 0.282 | 0.353 | 0.332 | 1.62 | 1.11 | 0.994 | 1.01
NCI-H2126 | 0.725 | 0.717 | 0.712 | 0.687 | – | 1.13 | 1.12 | 1.11 | 1.1 | 0.348 | 0.322 | 0.34 | 0.342 | 0.345 | 0.74 | 0.659 | 0.747 | 0.678
NCI-H1993 | 0.485 | 0.576 | 0.634 | 0.545 | 0.728 | 0.882 | 0.789 | – | 0.681 | 0.388 | 0.56 | 1.64 | 0.714 | 0.466 | 0.68 | 0.721 | – | 0.636
NCI-H1915 | 0.603 | 0.621 | 0.592 | 0.586 | – | 0.996 | 1 | 1.05 | 0.979 | 0.519 | 0.517 | 0.554 | 0.506 | 0.532 | 1.14 | 1.1 | 1.14 | 1.1
NCI-H727 | 0.641 | 0.689 | 0.619 | 0.622 | 0.628 | 0.796 | 0.981 | 0.623 | 0.785 | 0.593 | 0.593 | 0.644 | 0.644 | 0.505 | 0.325 | 0.393 | 0.261 | 0.27
NCI-H1734 | 0.607 | 0.589 | 0.522 | 0.642 | 0.799 | 0.923 | 1.02 | 0.989 | 0.929 | 0.374 | 0.332 | 0.384 | 0.346 | 0.357 | 1.02 | 0.982 | 0.981 | 0.902
A-427 | 0.434 | 0.481 | 0.47 | 0.476 | 0.906 | 0.962 | 0.981 | 0.985 | 0.916 | 0.549 | 0.533 | 0.491 | – | 0.496 | 1.19 | 1.09 | 1.14 | 1.12
NCI-H1437 | 0.893 | 0.867 | 0.82 | 0.762 | 0.647 | 0.476 | 0.449 | 0.482 | 0.603 | 0.336 | 0.307 | 0.307 | 0.235 | 0.374 | 1.35 | 1.21 | 1.14 | 1.03
PC-3 [JPC-3] | 0.834 | 0.698 | 0.773 | 0.821 | 0.837 | 0.805 | 0.831 | 0.826 | 0.635 | 0.585 | 0.527 | 0.515 | 0.54 | 0.486 | 0.962 | 0.978 | 1.03 | 0.988
